Experiments:
Experiment in all cases: combination Emax (second highest fraction inhibited in the dose matrix, 72 h); higher = more inhibition; extreme values may be limits of the assay
[1] = test system: JJN-3 (Plasma Cell Myeloma)
Method in brief: (§1)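 Bliss excess equals the observed combination effect minus the expected value EA + EB − EA·EB, where EA and EB are the effects of each agent alone. Combination Emax is the second-highest inhibition within the matrix. Inhibition was scaled from CellTiter-Glo 2.0 luminescence, with 0 set by vehicle wells and 1 by blank wells, after 72 hours of two-drug dosing of cells plated in 1536-well plates.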

DK-MG (Glioblastoma) = test system: DK-MG (Glioblastoma)
Method in brief: as §1

[2] = test system: NCI-H1944 (Lung Adenocarcinoma)
Method in brief: as §1

SK-MEL-24 (Melanoma) = test system: SK-MEL-24 (Melanoma)
Method in brief: as §1

[3] = test system: NCI-H1048 (Small Cell Lung Carcinoma)
Method in brief: as §1

[4] = test system: TK (B-Cell Non-Hodgkin's Lymphoma)
Method in brief: as §1

MG-63 (Osteosarcoma) = test system: MG-63 (Osteosarcoma)
Method in brief: as §1

[5] = test system: NCI-H1648 (Lung Adenocarcinoma)
Method in brief: as §1

[6] = test system: SBC-3 (Small Cell Lung Carcinoma)
Method in brief: as §1

[7] = test system: CAL-85-1 (Breast Carcinoma)
Method in brief: as §1

[8] = test system: Daudi (Burkitt's Lymphoma)
Method in brief: as §1

[9] = test system: BC-1 (B-Cell Non-Hodgkin's Lymphoma)
Method in brief: as §1

C32 (Melanoma) = test system: C32 (Melanoma)
Method in brief: as §1

[10] = test system: ATN-1 (T-Lymphoblastic Leukemia)
Method in brief: as §1

[11] = test system: SW1463 (Colorectal Carcinoma)
Method in brief: as §1

HT-144 (Melanoma) = test system: HT-144 (Melanoma)
Method in brief: as §1

Row | Structure (SMILES) | combination Emax [1] | combination Emax (DK-MG (Glioblastoma)) | combination Emax [2] | combination Emax (SK-MEL-24 (Melanoma)) | combination Emax [3] | combination Emax [4] | combination Emax (MG-63 (Osteosarcoma)) | combination Emax [5] | combination Emax [6] | combination Emax [7] | combination Emax [8] | combination Emax [9] | combination Emax (C32 (Melanoma)) | combination Emax [10] | combination Emax [11] | combination Emax (HT-144 (Melanoma))
1 | NC1(C(=O)N[C@@H](CCO)c2ccc(Cl)cc2)CCN(c2ncnc3[nH]ccc23)CC1 [Capivasertib] + CC(C)n1c(=O)n(C)c2cnc3cc(F)c(-c4ccc(OCCCN5CCCCC5)nc4)cc3c21 [AZD1390] (first compound max 10 µM, 7x7, partner max 0.3 µM) | 0.28 | 0.454 | 0.429 | 0.541 | 0.439 | 0.162 | 0.813 | 0.585 | 0.374 | 0.266 | 0.338 | 0.761 | 0.353 | 0.778 | 0.237 | 0.606
2 | COc1nnc2ccc(N3CCC(c4ccc(OCCN5CCN(C)C(=O)[C@H]5C)cc4)CC3)nn12 [AZD5153] + C=CCn1c(=O)c2cnc(Nc3ccc(N4CCN(C)CC4)cc3)nc2n1-c1cccc(C(C)(C)O)n1 [AZD1775] (first compound max 1 µM, partner max 1 µM) | 0.873 | 0.689 | 0.84 | 0.604 | 0.787 | 0.97 | 0.671 | 0.737 | 0.767 | 0.598 | 0.753 | 0.979 | 0.354 | 0.98 | 0.478 | 0.651
3 | COc1nnc2ccc(N3CCC(c4ccc(OCCN5CCN(C)C(=O)[C@H]5C)cc4)CC3)nn12 [AZD5153] + Cc1c2c(nn1C)CSCc1cc(n(C)n1)CSc1cc(c3ccccc3c1)OCCCc1c(C(=O)O)n(C)c3c-2c(Cl)ccc13 [AZD5991] (first compound max 1 µM, 7x7, partner max 1 µM) | 1 | 0.633 | 0.594 | 0.772 | 0.627 | 0.677 | 0.697 | 0.818 | 0.753 | 0.779 | 0.916 | 1 | 0.947 | 0.999 | 0.581 | 0.978
4 | COc1nnc2ccc(N3CCC(c4ccc(OCCN5CCN(C)C(=O)[C@H]5C)cc4)CC3)nn12 [AZD5153] + CCN(CCO)CCCOc1ccc2c(Nc3cc(CC(=O)Nc4cccc(F)c4)[nH]n3)ncnc2c1 [AZD2811] (first compound max 1 µM, 7x7, partner max 1 µM) | 0.876 | 0.614 | 0.711 | 0.528 | 0.514 | 0.371 | 0.694 | 0.669 | 0.781 | 0.657 | 0.677 | 0.943 | 0.38 | 0.734 | 0.563 | 0.48
5 | CC(=O)c1c(C)c2cnc(Nc3ccc(N4CCNCC4)cn3)nc2n(C2CCCC2)c1=O [Palbociclib] + CC1(C)CCC(CN2CCN(c3ccc(C(=O)NS(=O)(=O)c4ccc(NCC5CCOCC5)c([N+](=O)[O-])c4)c(Oc4cnc5[nH]ccc5c4)c3)CC2)=C(c2ccc(Cl)cc2)C1 [Venetoclax] (first compound max 10 µM, 7x7, partner max 1 µM) | 0.261 | 0.286 | 0.523 | 0.182 | 0.287 | 0.975 | 0.345 | 0.325 | 0.613 | 0.0543 | 0.442 | 0.917 | 0.0845 | 0.608 | 0.603 | 0.555
6 | CC(=O)c1c(C)c2cnc(Nc3ccc(N4CCNCC4)cn3)nc2n(C2CCCC2)c1=O [Palbociclib] + Cn1cnc2c(F)c(Nc3ccc(Br)cc3Cl)c(C(=O)NOCCO)cc21 [Selumetinib] (first compound max 10 µM, 7x7, partner max 10 µM) | 0.168 | 0.435 | 0.534 | 0.654 | 0.0486 | 0.196 | 0.431 | 0.543 | 0.744 | 0.387 | 0.415 | 0.91 | 0.959 | 0.48 | 0.646 | 0.896
7 | Cn1cnc2c(F)c(Nc3ccc(Br)cc3Cl)c(C(=O)NOCCO)cc21 [Selumetinib] + CCN(CCO)CCCOc1ccc2c(Nc3cc(CC(=O)Nc4cccc(F)c4)[nH]n3)ncnc2c1 [AZD2811] (first compound max 10 µM, 7x7, partner max 1 µM) | 0.551 | 0.38 | 0.381 | 0.558 | 0.611 | 0.262 | 0.32 | 0.593 | 0.482 | 0.483 | 0.387 | 0.655 | 0.999 | 0.734 | 0.678 | 0.786
8 | NC1(C(=O)N[C@@H](CCO)c2ccc(Cl)cc2)CCN(c2ncnc3[nH]ccc23)CC1 [Capivasertib] + CC(=O)c1c(C)c2cnc(Nc3ccc(N4CCNCC4)cn3)nc2n(C2CCCC2)c1=O [Palbociclib] (first compound max 10 µM, 7x7, partner max 10 µM) | 0.298 | 0.523 | 0.798 | 0.654 | 0.503 | 0.0563 | 0.712 | 0.567 | 0.67 | 0.203 | 0.491 | 0.928 | 0.413 | 0.686 | 0.502 | 0.809
9 | NC1(C(=O)N[C@@H](CCO)c2ccc(Cl)cc2)CCN(c2ncnc3[nH]ccc23)CC1 [Capivasertib] + C[C@@H]1COCCN1C2=NC(=NC(=C2)C3(CC3)[S@](=N)(=O)C)C4=C5C=CNC5=NC=C4 [AZD6738] (first compound max 10 µM, 7x7, partner max 10 µM) | 0.603 | 0.494 | 0.974 | 0.688 | 0.667 | 0.871 | 0.855 | 0.746 | 0.69 | 0.47 | 0.709 | 0.94 | 0.631 | 0.965 | 0.42 | 0.88
10 | COc1nnc2ccc(N3CCC(c4ccc(OCCN5CCN(C)C(=O)[C@H]5C)cc4)CC3)nn12 [AZD5153] + C[C@@H]1COCCN1C2=NC(=NC(=C2)C3(CC3)[S@](=N)(=O)C)C4=C5C=CNC5=NC=C4 [AZD6738] (first compound max 1 µM, 7x7, partner max 10 µM) | 0.964 | 0.624 | 0.88 | 0.636 | 0.678 | 0.968 | 0.757 | 0.821 | 0.784 | 0.734 | 0.843 | 0.989 | 0.606 | 0.984 | 0.555 | 0.713
11 | NC1(C(=O)N[C@@H](CCO)c2ccc(Cl)cc2)CCN(c2ncnc3[nH]ccc23)CC1 [Capivasertib] + CCN(CCO)CCCOc1ccc2c(Nc3cc(CC(=O)Nc4cccc(F)c4)[nH]n3)ncnc2c1 [AZD2811] (first compound max 10 µM, 7x7, partner max 1 µM) | 0.376 | 0.484 | 0.628 | 0.626 | 0.784 | 0.231 | 0.855 | 0.525 | 0.622 | 0.203 | 0.806 | 0.872 | 0.54 | 0.86 | 0.319 | 0.764
12 | NC1(C(=O)N[C@@H](CCO)c2ccc(Cl)cc2)CCN(c2ncnc3[nH]ccc23)CC1 [Capivasertib] + Cn1cnc2c(F)c(Nc3ccc(Br)cc3Cl)c(C(=O)NOCCO)cc21 [Selumetinib] (first compound max 10 µM, 7x7, partner max 10 µM) | 0.358 | 0.621 | 0.738 | 0.856 | 0.7 | 0.0522 | 0.793 | 0.893 | 0.346 | 0.411 | 0.212 | 0.829 | 1 | 0.77 | 0.65 | 0.985
13 | COc1nnc2ccc(N3CCC(c4ccc(OCCN5CCN(C)C(=O)[C@H]5C)cc4)CC3)nn12 [AZD5153] + Cn1cnc2c(F)c(Nc3ccc(Br)cc3Cl)c(C(=O)NOCCO)cc21 [Selumetinib] (first compound max 1 µM, 7x7, partner max 10 µM) | 0.955 | 0.652 | 0.717 | 0.857 | 0.449 | 0.232 | 0.689 | 0.88 | 0.699 | 0.687 | 0.527 | 0.945 | 1 | 0.508 | 0.732 | 0.864
14 | CC(=O)c1c(C)c2cnc(Nc3ccc(N4CCNCC4)cn3)nc2n(C2CCCC2)c1=O [Palbociclib] + Cc1c2c(nn1C)CSCc1cc(n(C)n1)CSc1cc(c3ccccc3c1)OCCCc1c(C(=O)O)n(C)c3c-2c(Cl)ccc13 [AZD5991] (first compound max 10 µM, 7x7, partner max 1 µM) | 0.992 | 0.366 | 0.633 | 0.283 | 0.65 | 0.266 | 0.406 | 0.406 | 0.806 | 0.234 | 0.571 | 1 | 0.254 | 0.954 | 0.58 | 0.972
15 | CS(=O)(=O)CCNCc1ccc(-c2ccc3ncnc(Nc4ccc(OCc5cccc(F)c5)c(Cl)c4)c3c2)o1 [Lapatinib] + C[C@@H](Oc1cc(-c2cnn(C3CCNCC3)c2)cnc1N)c1c(Cl)ccc(F)c1Cl [Crizotinib] (first compound max 10 µM, 7x7, partner max 10 µM) | 0.902 | 0.925 | 0.958 | 0.967 | 0.525 | 0.701 | 0.936 | 0.971 | 0.971 | 0.944 | 0.945 | 0.959 | 0.7 | 0.988 | 0.802 | 0.998
